Each compound was assayed on Aβ production in 293 751 SWE and CHO 751 SWE cells (transfected with APP-751 Swedish mutation) (assay: Aβ production inhibition activity in cells (Aβ ELISA of conditioned media, normalized for cytotoxicity by MTT)). Details: 5 μg/ml.
Type: cell-based
Protocol: Two cell lines (human kidney cell line 293 and Chinese hamster ovary cell line CHO) were stably transfected with the gene for APP-751 containing the double mutation Lys651 -Met652 to Asn651 -Leu652 (APP-751 numbering) commonly called the Swedish mutation using the method described in Citron et al., (1992) Nature 360:672-674. The transfected cell lines were designated as 293 751 SWE and CHO 751 SWE, and were plated in Corning 96 well plates at 2.5×10^4 or 1×10^4 cells per well respectively in Dulbecco's minimal essential media plus 10% fetal bovine serum. Following overnight incubation at 37° C. in an incubator equilibrated with 10% carbon dioxide (CO2), the media were removed and replaced with 200 μL per well of media containing a test compound. After a two hour pretreatment period, the media were again removed and replaced with fresh media containing the test compound and the cells were incubated for an additional two hours.
Test compound stocks were prepared in DMSO such that at the final concentration used in the treatment, the concentration of DMSO did no exceed 0.5%. After treatment, plates were centrifuged in a Beckman GPR at 1200 rpm for five minutes at room temperature to pellet cellular debris from the conditioned media. From each well, 100 μL of conditioned media were transferred into an ELISA plate precoated with antibody 266 against βAP-13-28 (Seubert et al., supra.) and stored at 4° C. overnight. An ELISA assay employing labeled antibody 6C6 (against βAP-1-16) was run the next day to measure the amount of Aβ produced.
Cytotoxic effects of the test compounds were measured by a modification of the method of Hansen et al., (1989) J. Immun. Meth. 119:203-210. To the cells remaining in the tissue culture plate, was added 25 μL of a 3, (4,5-dimethylthiazol-2-yl)2,5-diphenyltetrazolium bromide (MTT) stock solution (5 mg/mL) to a final concentration of […]. Cells were incubated at 37° C. for one hour, and cellular activity was stopped by the addition of an equal volume of MTT lysis buffer (20% w/v sodium dodecylsulfate in 50% DMF, pH 4.7). Complete extraction was achieved by overnight shaking at room temperature. The difference in the OD562 nm and the OD650 nm was measured in a Molecular Devices UVmax microplate reader as an indicator of the cellular viability.
The results of the Aβ ELISA were fit to a standard curve and expressed as ng/mL Aβ peptide. In order to normalize for cytotoxicity, these Aβ results were divided by the MTT results and expressed as a percentage of the results from a drug -free control.
The test compounds were assayed for Aβ production inhibition activity in cells at […] using the test. The results presented in Table 1 are the mean and standard deviation of at least six replicate assays. IC50 means the concentration of test compound in micromoles/liter required to inhibit Aβ production by 50%.

First: CC(C)(C)c1ccc(Oc2cccc(C(Cc3ccccc3)N(O)C(=S)NCc3ccccc3)c2)cc1 (stereo not shown) [Compound 33]
Second: CCCCCCNC(=S)N(O)C(Cc1ccccc1)c1cccc(Oc2ccc(C(C)(C)C)cc2)c1 (stereo not shown) [Compound 34]
The inhibition at 5 µg/mL of the first is lower: 16% for the first, 20% for the second.

Compared with `Cc1cccc(CNC(=S)N(O)Cc2cccc(OCc3ccc(C(C)(C)C)cc3)c2)c1` [Compound 48], `CC(C)(C)c1ccc(COc2cccc(CN(O)C(=S)NCc3ccc(Cl)c(Cl)c3)c2)cc1` [Compound 51] is higher in inhibition at 5 µg/mL: 29% for the first, 38% for the second.

Going from `CCCCCCNC(=S)N(O)Cc1cccc(OCc2ccc(C(C)(C)C)cc2)c1` [Compound 50] to `CCCCCCNC(=S)N(O)Cc1ccc(OCc2ccc(Cl)c(Cl)c2)cc1` [Compound 55], the inhibition at 5 µg/mL rises from 25% to 37%.

Going from `CC(C)(C)c1ccc(COc2ccc(CN(O)C(=S)NCc3ccccc3)cc2)cc1` [Compound 52] to `CCCCc1ccc(COc2ccc(CN(O)C(=S)NCc3ccccc3)cc2)cc1` [Compound 62], the inhibition at 5 µg/mL falls from 22% to 17%.

Compared with `ON(Cc1ccc(OCc2ccc(Cl)c(Cl)c2)cc1)C(=S)NCc1ccccc1` [Compound 54], `ON(Cc1ccc(OCc2ccc(F)c(F)c2)cc1)C(=S)NCc1ccccc1` [Compound 56] is higher in inhibition at 5 µg/mL: 25% for the first, 28% for the second.

Compared with `CCCCCCNC(=S)N(O)Cc1ccc(OCc2ccc(F)c(F)c2)cc1` [Compound 57], `CCCCCCNC(=S)N(O)Cc1ccc(OCc2ccc(CCCC)cc2)cc1` [Compound 63] is higher in inhibition at 5 µg/mL: 4% for the first, 9% for the second.

Going from `Cc1ccc(C)c(COc2ccc(CN(O)C(=S)NCc3ccccc3)cc2)c1` [Compound 58] to `COc1cc(COc2ccc(CN(O)C(=S)NCc3ccccc3)cc2)cc(OC)c1` [Compound 60], the inhibition at 5 µg/mL falls from 32% to 17%.

First: CCCCCCNC(=S)N(O)Cc1ccc(OCc2cc(OC)cc(OC)c2)cc1 [Compound 61]
Second: CCCCCCNC(=S)N(O)Cc1ccc(-c2ccccc2)cc1 [Compound 78]
The inhibition at 5 µg/mL of the first is higher: 28% for the first, 24% for the second.

Work on `ON(Cc1ccc(-c2ccccc2)cc1)C(=S)NCc1ccccc1` [Compound 77] yielded an inhibition at 5 µg/mL of 2%.

Same assay, conditions: 10 μg/ml, % of drug-free control, normalized to MTT

First: CCCCCCC(c1cccc(Oc2ccc(C(C)(C)C)cc2)c1)N(O)C(=S)Nc1ccc(Cl)c(C(F)(F)F)c1 (stereo not shown) [Compound 35]
Second: CCCCCCC(c1cccc(Oc2ccc(C(C)(C)C)cc2)c1)N(O)C(=S)NCc1ccccc1 (stereo not shown) [Compound 36]
The inhibition at 10 µg/mL of the first is lower: 9% for the first, 26% for the second.

Compared with `CCCCCCNC(=S)N(O)C(CCCCCC)c1cccc(Oc2ccc(C(C)(C)C)cc2)c1` (stereo not shown) [Compound 37], `CCCCCCNC(=S)N(Cc1cccc(Oc2ccc(C(C)(C)C)cc2)c1)OC` [Compound 43] is higher in inhibition at 10 µg/mL: 0% for the first, 16% for the second.

Going from `CC(c1cccc(Oc2ccc(C(C)(C)C)cc2)c1)N(C(=S)NCc1ccccc1)N(C)C` (stereo not shown) [Compound 38] to `CC(c1cccc(Oc2ccc(C(C)(C)C)cc2)c1)N(O)C(=O)NCc1ccccc1` (stereo not shown) [Compound 46], the inhibition at 10 µg/mL rises from 32% to 68%.

Going from `CN(Cc1cccc(Oc2ccc(C(C)(C)C)cc2)c1)C(=S)NCc1ccc(Cl)c(Cl)c1` [Compound 44] to `Cc1cccc(CNC(=S)N(O)Cc2ccc(-c3ccc(C(C)(C)C)cc3)cc2)c1` [Compound 82], the inhibition at 10 µg/mL falls from 40% to 30%.

Going from `CC(NC(=S)NCc1ccccc1)c1cccc(Oc2ccccc2)c1` (stereo not shown) [Compound 47] to `CCCCOc1ccc(COc2cccc(CN(O)C(=S)NCc3ccccc3)c2)cc1` [Compound 66], the inhibition at 10 µg/mL rises from 8% to 21%.

Going from `ON(Cc1ccc(OCc2c(Cl)cccc2Cl)cc1)C(=S)NCc1ccccc1` [Compound 64] to `Cc1cccc(CNC(=S)N(O)Cc2ccc(OCc3c(Cl)cccc3Cl)cc2)c1` [Compound 65], the inhibition at 10 µg/mL falls from 18% to 7%.

Compared with `CCCc1c(COc2ccc(CN(O)C(=S)NCc3ccccc3)cc2)ccc(C(C)=O)c1O` [Compound 67], `CCCc1c(COc2ccc(CN(O)C(=S)Nc3ccc(Cl)c(C(F)(F)F)c3)cc2)ccc(C(=O)c2ccccc2)c1O` [Compound 69] is lower in inhibition at 10 µg/mL: 42% for the first, 14% for the second.

First: CCCCCCNC(=S)N(O)Cc1cccc(OCc2ccc(C(=O)CC)c(O)c2CCC)c1 [Compound 70]
Second: CCCCCCNC(=S)N(O)Cc1ccc(-c2ccc(C(C)(C)C)cc2)cc1 [Compound 80]
The inhibition at 10 µg/mL of the first is higher: 37% for the first, 11% for the second.

Compared with `ON(Cc1ccc(-c2ccccc2)cc1)C(=S)NCc1ccc(Cl)c(Cl)c1` [Compound 76], `Cc1cccc(CNC(=S)N(O)Cc2ccc(-c3ccccc3)cc2)c1` [Compound 79] is higher in inhibition at 10 µg/mL: 13% for the first, 15% for the second.

Going from `CC(C)(C)c1ccc(-c2ccc(CN(O)C(=S)NCc3ccccc3)cc2)cc1` [Compound 81] to `CC(C)(C)c1ccc(S(=O)(=O)c2cccc(CN(O)C(=S)NCc3ccccc3)c2)cc1` [Compound 92], the inhibition at 10 µg/mL rises from 20% to 25%.

With `CCCCCCNC(=S)N(O)Cc1cccc(S(=O)(=O)c2ccc(C(C)(C)C)cc2)c1` [Compound 93] the “Aβ Production Inhibition Activity, % inhibition at 10 μg/ml” value was 13%.

Same assay, conditions: 2 h pretreatment + 2 h incubation

`CCCC(c1cccc(Oc2ccc(C(C)(C)C)cc2)c1)N(O)C(=S)NCc1cccc(C)c1` (stereo not shown) [Compound 32] and `CC(NC(=S)NCc1ccccc1)c1cccc(Oc2ccc(C(C)(C)C)cc2)c1` (stereo not shown) [Compound 39] are within 1.5-fold of each other in IC50: 9 µM for the first, 10.5 µM for the second.

First: CC(C)(C)c1ccc(Oc2cccc(CNC(=S)NCc3ccccc3)c2)cc1 [Compound 40]
Second: CC(C)(C)c1ccc(Oc2cccc(CNC(=S)NCc3ccc(Cl)c(C(F)(F)F)c3)c2)cc1 [Compound 41]
The IC50 of the first is 2.3-fold higher: 9.1 µM for the first, 4 µM for the second. The second is the more potent here.

First: CCCCCCNC(=S)NCc1cccc(Oc2ccc(C(C)(C)C)cc2)c1 [Compound 42]
Second: CCCCCCNC(=S)N(O)Cc1cccc(Sc2ccc(C(C)(C)C)cc2)c1 [Compound 87]
The IC50 of the first is 1.7-fold higher: 17.2 µM for the first, 9.9 µM for the second. The second is the more potent here.

`CCCCc1ccc(Oc2cccc(C(C)N(O)C(=S)NCc3ccccc3)c2)cc1` (stereo not shown) [Compound 45] and `CC(c1cccc(OCc2ccc(C(C)(C)C)cc2)c1)N(O)C(=S)NCc1ccccc1` (stereo not shown) [Compound 75] are within 1.5-fold of each other in IC50: 9.2 µM for the first, 8.9 µM for the second.

`CC(C)(C)c1ccc(COc2cccc(CN(O)C(=S)NCc3ccccc3)c2)cc1` [Compound 49] and `CC(C)(C)c1ccc(Sc2cccc(CN(O)C(=S)NCc3ccccc3)c2)cc1` [Compound 86] are within 1.5-fold of each other in IC50: 6.7 µM for the first, 5.9 µM for the second.

First: CCCCCCNC(=S)N(O)Cc1ccc(OCc2ccc(C(C)=O)c(O)c2CCC)cc1 [Compound 68]
Second: CCCCCCNC(=S)N(O)Cc1ccc(Sc2ccc(C(C)(C)C)cc2)cc1 [Compound 89]
The IC50 of the first is 3.7-fold higher: 19.7 µM for the first, 5.3 µM for the second. The second is the more potent here.

`COc1c(C(C)(C)C)cc(COc2cccc(CN(O)C(=S)NCc3ccccc3)c2)cc1C(C)(C)C` [Compound 72] and `COc1c(C(C)(C)C)cc(COc2ccc(CN(O)C(=S)NCc3ccccc3)cc2)cc1C(C)(C)C` [Compound 73] are within 1.5-fold of each other in IC50: 8.1 µM for the first, 5.9 µM for the second.

Going from `CC(C)(C)c1ccc(-c2ccc(CN(O)C(=S)Nc3ccc(Cl)c(C(F)(F)F)c3)cc2)cc1` [Compound 83] to `CC(C)(C)c1ccc(Sc2ccc(CN(O)C(=S)NCc3ccccc3)cc2)cc1` [Compound 88], the IC50 falls from 12.4 µM to 7.5 µM (1.7-fold).

`CC(C)(C)c1ccc(C(=O)Nc2cccc(CN(O)C(=S)NCc3ccccc3)c2)cc1` [Compound 84] and `CC(C)(C)c1ccc([S+]([O-])c2cccc(CN(O)C(=S)NCc3ccccc3)c2)cc1` (stereo not shown) [Compound 91] are within 1.5-fold of each other in IC50: 15 µM for the first, 17.1 µM for the second.

`CCCCCCNC(=S)N(O)Cc1cccc(NC(=O)c2ccc(C(C)(C)C)cc2)c1` [Compound 85] and `CCCCCCNC(=S)N(O)Cc1cccc(S(=O)(=O)c2ccc(C(C)(C)C)cc2)c1` [Compound 90] are within 1.5-fold of each other in IC50: 18.6 µM for the first, 22 µM for the second.
